The values below are quoted from earlier work in patent US20260272825A1, “LEVONORGESTREL AND COMPOSITIONS COMPRISING THE SAME” (CHEMO RESEARCH, S.L., priority 2023, published 2026).

The data set has as its system women.

For `C[C@]12CCC3=C4CCC(=O)C=C4CC[C@H]3[C@@H]1CC[C@@]2(O)CC#N` [DNG, Dienogest], the “Ovulation inhibition / ovarian activity, in words” value (2 mg daily) is reported as “provides ovulation inhibition, but ovarian activity is not completely suppressed”.

For `C#C[C@]1(OC(C)=O)CC[C@H]2[C@@H]3CCC4=CC(=O)CC[C@@H]4[C@H]3CC[C@@]21C` [NETA, norethisterone acetate], where the note is “given continuously over 28 days”, the “Dosage providing ovulation inhibition” value is no less than 0.35 mg/daily.

For `C#C[C@]1(O)CC[C@H]2[C@@H]3CCC4=CCCC[C@@H]4[C@H]3C(=C)C[C@@]21CC` [desogestrel], the “Cycles with ovulation inhibited” value (POP containing desogestrel 0.075 mg) is “at least 98%”.
